The test system of the assay is HCV pseudoparticles. Briefly: HCV pseudoparticle infection assay (luciferase reporter, Huh7 cells). Conditions: Hepatitis C virus, genotype 1b, Huh-7, 48 h, HCV pseudoparticles (genotype 1b), luciferase activity 2 days after infection. It is filed as cell-based, HCV (genotype 1b E1 and E2 envelope).

Broadly, the EC50 is the concentration at which the effect is half-maximal. On to `O=C(NS(=O)(=O)CCN1CCCC1)c1ccc(Nc2nc(NC3(c4ccc(Cl)cc4)CC3)nc(OCC(F)(F)F)n2)cc1` [Example 1029, 4-(4-(1-(4-chlorophenyl)cyclopropylamino)-6-(2,2,2-trifluoroethoxy)-1,3,5-triazin-2-ylamino)-N-(2-(pyrrolidin-1-yl)ethylsulfonyl)benzamide], for which the half-maximal effective concentration (EC50) (class) was 0.0005 to 0.1 µM.
`CC(C)NCCS(=O)(=O)NC(=O)c1ccc(Nc2nc(NC3(c4ccc(Cl)cc4)CC3)nc(OCC(F)(F)F)n2)cc1` [Example 1035]: the EC50 (class) lay within 0.0005 to 0.1 µM.
Compound `O=C(NS(=O)(=O)CCCN1CCCC1)c1ccc(Nc2nc(NC3(c4ccc(Cl)cc4)CC3)nc(N3CCCC3)n2)cc1` [Example 8003] came in with an EC50 (class) of 1 to 5 µM.
`O=C(NS(=O)(=O)C1(Cc2ccccc2)CC1)c1ccc(Nc2nc(NC3(c4ccc(Cl)cc4)CC3)nc(OCC(F)(F)F)n2)cc1` [Example 8014] returned an EC50 of 0.0127 µM. Also, for the setting “class”, the concentration giving a half-maximal response (EC50) lay within 0.0005 to 0.1 µM.
In turn, `C=C[C@@H]1C[C@]1(NC(=O)CCCCNC(=O)c1ccc(Nc2nc(NC3(c4ccc(Cl)cc4)CC3)nc(OCC(F)(F)F)n2)cc1)C(=O)NS(=O)(=O)C1CC1` [Example 2031] came in with a 50% effective concentration (EC50) (class) of 0.0005 to 0.1 µM.
Regarding `C=C[C@@H]1C[C@]1(NC(=O)C(C)(C)CNC(=O)c1ccc(Nc2nc(NC3(c4ccc(Cl)cc4)CC3)nc(OCC(F)(F)F)n2)cc1)C(=O)NS(=O)(=O)C1CC1` [Example 2080], where the note is “class”, the half-maximal effective concentration (EC50) fell in the range of 0.0005 to 0.1 µM.
Still for that read-out and setting: under `CCS(=O)(=O)NC(=O)[C@@]1(NC(=O)CCCNC(=O)c2ccc(Nc3nc(NC4(c5ccc(Cl)cc5)CC4)nc(OCC(F)(F)F)n3)cc2)C[C@H]1C1CC1(F)F` (stereo partly drawn) [Example 2047] stands 0.0005 to 0.1 µM; under `CC(=O)N1CCN(c2nc(Nc3ccc(C(=O)NS(=O)(=O)C4(CN(C)C)CC4)cc3)nc(OCC(F)(F)F)n2)CC1` [Example 8024], 1 to 5 µM.
For `CS(=O)(=O)NC(=O)CNC(=O)c1ccc(Nc2nc(NC3(c4ccc(Cl)cc4)CC3)nc(OCC(F)(F)F)n2)cc1` [Example 2009], a half-maximal response (EC50) required 0.097 µM. Further, under “class”, the 50% effective concentration (EC50) fell in the range of 0.0005 to 0.1 µM.
Take `C[C@H](NC(=O)CCCNC(=O)c1ccc(Nc2nc(NC3(c4ccc(Cl)cc4)CC3)nc(OCC(F)(F)F)n2)cc1)C(=O)NS(C)(=O)=O` [Example 2054]: the concentration for a half-maximal effect (EC50) (class) fell in the range of 0.0005 to 0.1 µM.
Regarding `O=C(NCC1(CN2CCCC2)CC1)c1ccc(Nc2nc(NC3(c4ccc(C(=O)NS(=O)(=O)C5CCC5)cc4)CC3)nc(OCC(F)(F)F)n2)cc1` [Example 7002], where the note is “class”, the half-maximal effective concentration (EC50) lay within 0.0005 to 0.1 µM.
`NC(=O)c1ccc(Nc2nc(N[C@]3(C(=O)NS(=O)(=O)C4CC4)C[C@H]3C3CC3)nc(OCC(F)(F)F)n2)cc1` [Example 8001] returned an EC50 (class) of 1 to 5 µM.
Under “class”, `C=CS(=O)(=O)NC(=O)CCNC(=O)c1ccc(Nc2nc(NC3(c4ccc(Cl)cc4)CC3)nc(OCC(F)(F)F)n2)cc1` [Example 2016] yielded a concentration giving a half-maximal response (EC50) of 0.0005 to 0.1 µM.
With `C=C[C@@H]1C[C@]1(NC(=O)C1(CNC(=O)c2ccc(Nc3nc(NC4(c5ccc(Cl)cc5)CC4)nc(OCC(F)(F)F)n3)cc2)CC1)C(=O)NS(=O)(=O)C(C)(C)C` [Example 2068], the EC50 (class) fell in the range of 0.0005 to 0.1 µM.
`O=C(NS(=O)(=O)C1CCCC1)c1ccc(Nc2nc(NC3(c4ccc(Cl)cc4)CC3)nc(OCC(F)(F)F)n2)cc1` [Example 8017] registered an EC50 (class) of 0.0005 to 0.1 µM.
Regarding `O=C(NS(=O)(=O)CCCCl)c1ccc(Nc2nc(NC3(c4ccc(Cl)cc4)CC3)nc(OCC(F)(F)F)n2)cc1` [Example 1009], the EC50 (class) was in the range of 0.0005 to 0.1 µM.
Where the note is “class”, `COCC1(S(=O)(=O)NC(=O)c2ccc(Nc3nc(NC4(c5ccc(Cl)cc5)CC4)nc(OCC(F)(F)F)n3)cc2)CC1` [Example 1010] came in with an EC50 of 0.0005 to 0.1 µM.
`O=C(CCCNC(=O)c1ccc(Nc2nc(NC3(c4ccc(Cl)cc4)CC3)nc(OCC(F)(F)F)n2)cc1)NCCC(=O)NS(=O)(=O)C1CC1` [Example 2062] displayed an EC50 (class) of 0.0005 to 0.1 µM.
On the same count and under the same terms, to `CS(=O)(=O)NC(=O)C1(CNC(=O)c2ccc(Nc3nc(NC4(c5ccc(Cl)cc5)CC4)nc(OCC(F)(F)F)n3)cc2)CC1` [Example 2071] belongs 0.0005 to 0.1 µM.
`O=C(CCCNC(=O)c1ccc(Nc2nc(NC3(c4ccc(Cl)cc4)CC3)nc(OCC(F)(F)F)n2)cc1)N[C@]1(C(=O)NS(=O)(=O)C2(C(F)F)CC2)C[C@H]1C1CC1` [Example 2045] returned an EC50 of 0.00072 µM. Under “class”, this compound came in with a concentration for a half-maximal effect (EC50) of 0.0005 to 0.1 µM.
On to `CN(C)CC1(S(=O)(=O)NC(=O)c2ccc(Nc3nc(NC4(c5ccc(Cl)cc5)CC4)nc(OCC(F)(F)F)n3)cc2)CC1` [Example 1012], for which a half-maximal response (EC50) required 0.00025 µM. Moreover, the concentration for a half-maximal effect (EC50) (class) fell in the range of 0.0005 to 0.1 µM.
`C=CS(=O)(=O)NC(=O)CCCCNC(=O)c1ccc(Nc2nc(NC3(c4ccc(Cl)cc4)CC3)nc(OCC(F)(F)F)n2)cc1` [Example 2015]: for the setting “class”, the EC50 lay in the range of 0.0005 to 0.1 µM.
Same read-out and setting: to `CC(C)S(=O)(=O)NC(=O)CCCNC(=O)c1ccc(Nc2nc(NC3(c4ccc(Cl)cc4)CC3)nc(OCC(F)(F)F)n2)cc1` [Example 2023] belongs 0.0005 to 0.1 µM; to `NC(=O)C1C[C@@H]2C[C@@H]2N1CC1(S(=O)(=O)NC(=O)c2ccc(Nc3nc(NC4(c5ccc(Cl)cc5)CC4)nc(OCC(F)(F)F)n3)cc2)CC1` (stereo partly drawn) [Example 1017], 0.0005 to 0.1 µM; to `CCCC1(S(=O)(=O)NC(=O)c2ccc(Nc3nc(NC4(c5ccc(Cl)cc5)CC4)nc(OCC(F)(F)F)n3)cc2)CC1` [Example 1007], 0.0005 to 0.1 µM.
The same measure, in the same setting: under `CS(=O)(=O)NC(=O)[C@@]1(NC(=O)CCCNC(=O)c2ccc(Nc3nc(NC4(c5ccc(Cl)cc5)CC4)nc(OCC(F)(F)F)n3)cc2)C[C@H]1C1CC1(F)F` (stereo partly drawn) [Example 2046] stands 0.0005 to 0.1 µM.
On to `CC(C)S(=O)(=O)NC(=O)[C@@]1(NC(=O)CCCNC(=O)c2ccc(Nc3nc(NC4(c5ccc(Cl)cc5)CC4)nc(OCC(F)(F)F)n3)cc2)C[C@H]1C1CC1(F)F` (stereo partly drawn) [Example 2048], for which the 50% effective concentration (EC50) (class) fell in the range of 0.0005 to 0.1 µM.
For the setting “class”, `O=C(CCCNC(=O)c1ccc(Nc2nc(NC3(c4ccc(Cl)cc4)CC3)nc(OCC(F)(F)F)n2)cc1)N[C@]1(C(=O)NS(=O)(=O)C2(F)CC2)C[C@H]1C1CC1` [Example 2044] yielded an EC50 of 0.0005 to 0.1 µM.
`CN(C)CC1(S(=O)(=O)NC(=O)c2ccc(Nc3nc(OCC(F)(F)F)nc(N4CCN(C(=O)OC(C)(C)C)CC4)n3)cc2)CC1` [Example 8028]: the midpoint of the response, the EC50, lay at 17.6 µM. Moreover, the EC50 (class) was in the range of 1 to 5 µM.
In the case of `CC(C)S(=O)(=O)NC(=O)COc1ccc(C2(Nc3nc(Nc4ccc(C(=O)NCC5(CN6CCCC6)CC5)cc4)nc(OCC(F)(F)F)n3)CC2)cc1` [Example 6000, 4-(4-(1-(4-(2-(1-methylethylsulfonamido)-2-oxoethoxy)phenyl)cyclopropylamino)-6-(2,2,2-trifluoroethoxy)-1,3,5-triazin-2-ylamino)-N-((1-(pyrrolidin-1-ylmethyl)cyclopropyl)methyl)benzamide], the EC50 (class) fell in the range of 0.0005 to 0.1 µM.
Turning to `CC(C)(CNC(=O)c1ccc(Nc2nc(NC3(c4ccc(Cl)cc4)CC3)nc(OCC(F)(F)F)n2)cc1)C(=O)NS(C)(=O)=O` [Example 2085], the half-maximal effective concentration (EC50) (class) was in the range of 0.0005 to 0.1 µM.
Still for that read-out and setting: under `C[C@@H](NC(=O)CCCNC(=O)c1ccc(Nc2nc(NC3(c4ccc(Cl)cc4)CC3)nc(OCC(F)(F)F)n2)cc1)C(=O)NS(=O)(=O)C1CC1` [Example 2053] stands 0.0005 to 0.1 µM.
Where the note is “class”, `Cn1cnc(C[C@H](NC(=O)c2ccc(Nc3nc(NC4(c5ccc(Cl)cc5)CC4)nc(OCC(F)(F)F)n3)cc2)C(=O)N[C@]2(C(=O)NS(=O)(=O)C3CCC3)C[C@H]2C2CC2)c1` [Example 8020] came in with an EC50 of 0.0005 to 0.1 µM.
In turn, `O=C(CCCNC(=O)c1ccc(Nc2nc(NC3(c4ccc(Cl)cc4)CC3)nc(OCC(F)(F)F)n2)cc1)NC1(C(=O)NS(=O)(=O)C2CC2)CC1` [Example 2033] showed an EC50 (class) of 0.0005 to 0.1 µM.
The same measure, in the same setting: to `O=C(CCCNC(=O)c1ccc(Nc2nc(NC3(c4ccc(Cl)cc4)CC3)nc(OCC(F)(F)F)n2)cc1)NS(=O)(=O)C1CC1` [Example 2024] belongs 0.0005 to 0.1 µM; to `CN(C)S(=O)(=O)NC(=O)CCCNC(=O)c1ccc(Nc2nc(NC3(c4ccc(Cl)cc4)CC3)nc(OCC(F)(F)F)n2)cc1` [Example 2025], 0.0005 to 0.1 µM; to `O=C(NS(=O)(=O)c1ccc(Nc2nc(NC3(c4ccc(Cl)cc4)CC3)nc(OCC(F)(F)F)n2)cc1)c1ccccc1` [Example 8005], 1 to 5 µM.
Turning to `CS(=O)(=O)NC(=O)CCCNC(=O)c1ccc(Nc2nc(NC3(c4ccc(Cl)cc4)CC3)nc(OCC(F)(F)F)n2)cc1` [Example 2019], the half-maximal effective concentration (EC50) (class) was in the range of 0.0005 to 0.1 µM.
The same measure, in the same setting: to `CN(C)S(=O)(=O)NC(=O)C1(CNC(=O)c2ccc(Nc3nc(NC4(c5ccc(Cl)cc5)CC4)nc(OCC(F)(F)F)n3)cc2)CC1` [Example 2078] belongs 0.0005 to 0.1 µM; to `C=CS(=O)(=O)NC(=O)C(C)(C)CNC(=O)c1ccc(Nc2nc(NC3(c4ccc(Cl)cc4)CC3)nc(OCC(F)(F)F)n2)cc1` [Example 2086], 0.0005 to 0.1 µM; to `O=C(CCCCNC(=O)c1ccc(Nc2nc(NC3(c4ccc(Cl)cc4)CC3)nc(OCC(F)(F)F)n2)cc1)NC1(C(=O)NS(=O)(=O)C2CC2)CC1` [Example 2029], 0.0005 to 0.1 µM.
Consider `CC1(C)CCN(CC2(S(=O)(=O)NC(=O)c3ccc(Nc4nc(NC5(c6ccc(Cl)cc6)CC5)nc(OCC(F)(F)F)n4)cc3)CC2)C1` [Example 1023], for which the half-maximal effective concentration (EC50) (class) was 0.0005 to 0.1 µM.
The compound `CCC1(S(=O)(=O)NC(=O)C(C)(C)CNC(=O)c2ccc(Nc3nc(NC4(c5ccc(Cl)cc5)CC4)nc(OCC(F)(F)F)n3)cc2)CC1` [Example 2091] had an EC50 (class) of 0.0005 to 0.1 µM.
For the compound `CC(C)NCC1(C(=O)NS(=O)(=O)c2ccc(Nc3nc(NC4(c5ccc(Cl)cc5)CC4)nc(OCC(F)(F)F)n3)cc2)CC1` [Example 3005], the 50% effective concentration (EC50) (class) is 1 to 5 µM.
The compound `O=C(NCC1(C(=O)NC2(C(=O)NS(=O)(=O)C3CC3)CC2)CC1)c1ccc(Nc2nc(NC3(c4ccc(Cl)cc4)CC3)nc(OCC(F)(F)F)n2)cc1` [Example 2067] returned a 50% effective concentration (EC50) (class) of 0.0005 to 0.1 µM.
In turn, `CN(C)S(=O)(=O)NC(=O)c1ccc(Nc2nc(NC3(c4ccc(Cl)cc4)CC3)nc(OCC(F)(F)F)n2)cc1` [Example 1006] showed a half-maximal effective concentration (EC50) of 0.039 µM. The compound further yielded a concentration giving a half-maximal response (EC50) (class) of 0.0005 to 0.1 µM.
Consider `C=C[C@@H]1C[C@]1(NC(=O)C1(CNC(=O)c2ccc(Nc3nc(NC4(c5ccc(Cl)cc5)CC4)nc(OCC(F)(F)F)n3)cc2)CC1)C(=O)NS(=O)(=O)C1CC1` [Example 2065], for which the EC50 (class) lay in the range of 0.0005 to 0.1 µM.
As to `COC(=O)NCCS(=O)(=O)NC(=O)c1ccc(Nc2nc(NC3(c4ccc(Cl)cc4)CC3)nc(OCC(F)(F)F)n2)cc1` [Example 1044], for the setting “class”, the EC50 was in the range of 0.0005 to 0.1 µM.

For the origin of these results see US8765944B2, “Compounds for the treatment of hepatitis C” (priority 2010, dated 2014).
